Assay results published in PubChem BioAssay (NCI).
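Five compound concentrations were applied to cells in 96-well plates for 48 hours; endpoints were derived by simple linear interpolation of the resulting dose-response curve. GI50 is the concentration that inhibits growth by half. TGI: total growth inhibition.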

Legend:
Experiment in all cases: growth of human tumour cells (NCI), 48 h
ACHN renal = test system: ACHN renal
CAKI-1 renal = test system: CAKI-1 renal
CCRF-CEM leukemia = test system: CCRF-CEM leukemia
COLO 205 colon = test system: COLO 205 colon
EKVX NSCLC = test system: EKVX NSCLC
HL-60(TB) leukemia = test system: HL-60(TB) leukemia
OVCAR-4 ovarian = test system: OVCAR-4 ovarian
OVCAR-5 ovarian = test system: OVCAR-5 ovarian
U251 CNS = test system: U251 CNS
UACC-257 melanoma = test system: UACC-257 melanoma

SMILES	TGI (ACHN renal) [µM]	TGI (CAKI-1 renal) [µM]	TGI (CCRF-CEM leukemia) [µM]	TGI (COLO 205 colon) [µM]	TGI (EKVX NSCLC) [µM]	TGI (HL-60(TB) leukemia) [µM]	TGI (OVCAR-4 ovarian) [µM]	TGI (OVCAR-5 ovarian) [µM]	TGI (U251 CNS) [µM]	TGI (UACC-257 melanoma) [µM]	GI50 (ACHN renal) [µM]	GI50 (CAKI-1 renal) [µM]	GI50 (COLO 205 colon) [µM]	GI50 (OVCAR-5 ovarian) [µM]	GI50 (U251 CNS) [µM]	GI50 (UACC-257 melanoma) [µM]	GI50 (CCRF-CEM leukemia) [µM]	GI50 (EKVX NSCLC) [µM]	GI50 (HL-60(TB) leukemia) [µM]	GI50 (OVCAR-4 ovarian) [µM]
C/C(=N\NC(=S)N1CCOCC1)c1nc2ncccc2[nH]1	> 100	> 100	> 100	> 100	> 100	> 100	> 100	> 100	81.8	77.4	–	–	–	–	–	–	–	–	–	–
Cc1cc(Nc2ccc(Cl)cc2)nc(NCCCNc2ccnc3cc(Cl)ccc23)n1	3.06	2.9	–	3.31	–	–	–	3.09	2.88	3.39	1.63	1.53	1.66	1.66	1.5	1.8	–	–	–	–
NC(Cc1ccccc1CP(=O)(O)O)C(=O)O (stereo not drawn)	> 100	> 100	> 100	> 100	> 100	> 100	> 100	> 100	> 100	> 100	–	–	–	–	–	–	–	–	–	–
CC(C)=CCC/C(C)=C/C=C/C(C)=C/C1C[C@@]2(C(O)O1)[C@H](CCCO)/C(=C(/C)C=O)CC[C@]2(C)O (stereo partly drawn)	25.2	25.6	–	13.4	25.1	29	–	55.6	–	56.5	–	–	–	–	–	–	–	–	–	–
COc1cc2c(cc1OCCCOc1ccc(-c3cc4ccccc4c4ccccc34)cc1)N=C[C@@H]1CCCN1C2=O	2.3	1.65	–	2.44	2.3	0.393	2.21	0.995	2.11	3.1	1.07	0.535	1.19	0.487	0.91	1.57	0.237	1.1	0.171	0.815
CCOC(=O)c1csc(NC(=O)C(C)N2CCOCC2)n1 (stereo not drawn)	> 100	> 100	> 100	> 100	> 100	> 100	> 100	> 100	> 100	> 100	–	–	–	–	–	–	–	–	–	–
COC(=O)C(NC(=O)c1ccccc1)C(c1c(O)cc(O)cc1O)P(=O)(OC)OC (stereo not drawn)	> 100	> 100	> 100	> 100	> 100	> 100	> 100	> 100	> 100	> 100	–	–	–	–	–	–	–	–	–	–
COc1cc(/C=C2/Oc3c(OC)cccc3C2=O)ccc1O	> 100	> 100	> 100	> 100	> 100	> 100	> 100	> 100	> 100	> 100	–	–	–	–	–	–	–	–	–	–
